ChEMBL document CHEMBL1128035, “Structural optimization of alkyl-substituted 2-(7-5H-[1]benzopyrano[2,3-b]pyridyl)propionic acid as anti-inflammatory agents” (Bioorg Med Chem Lett, 1995)

Legend:
[1] = molecular target: T1, Prostaglandin G/H synthase 1 (Ovis aries, UniProt P05979); experiment: Inhibitory activity against COX-1 from ram seminal vesicles
T1 sequence (P05979 whole entry): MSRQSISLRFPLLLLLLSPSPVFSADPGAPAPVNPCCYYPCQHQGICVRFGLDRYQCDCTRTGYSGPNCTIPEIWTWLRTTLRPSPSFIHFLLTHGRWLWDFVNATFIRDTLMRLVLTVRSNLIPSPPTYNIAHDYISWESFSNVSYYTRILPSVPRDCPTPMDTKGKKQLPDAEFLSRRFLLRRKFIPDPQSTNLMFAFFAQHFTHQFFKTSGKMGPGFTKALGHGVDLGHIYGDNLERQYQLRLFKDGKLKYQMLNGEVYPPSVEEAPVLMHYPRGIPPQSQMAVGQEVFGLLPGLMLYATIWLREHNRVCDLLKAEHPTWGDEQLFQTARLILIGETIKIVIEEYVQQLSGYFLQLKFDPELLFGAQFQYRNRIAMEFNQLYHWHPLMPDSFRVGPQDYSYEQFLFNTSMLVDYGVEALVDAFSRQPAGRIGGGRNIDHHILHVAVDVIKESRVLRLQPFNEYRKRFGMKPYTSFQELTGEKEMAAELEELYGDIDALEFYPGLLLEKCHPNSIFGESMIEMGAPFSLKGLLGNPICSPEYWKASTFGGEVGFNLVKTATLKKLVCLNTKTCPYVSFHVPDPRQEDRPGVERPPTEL

[2] = Partition coefficient measured in n-octanol/ pH 7.4 phosphate buffer; format: physicochemical
[3] = molecular target: T2, Prostaglandin G/H synthase 1 (Rattus norvegicus, UniProt Q63921); experiment: Inhibitory activity against COX-1 from rat peritoneal leukocytes, measured by PGE-2 produced (enzyme immunoassay)
T2 sequence (Q63921 whole entry): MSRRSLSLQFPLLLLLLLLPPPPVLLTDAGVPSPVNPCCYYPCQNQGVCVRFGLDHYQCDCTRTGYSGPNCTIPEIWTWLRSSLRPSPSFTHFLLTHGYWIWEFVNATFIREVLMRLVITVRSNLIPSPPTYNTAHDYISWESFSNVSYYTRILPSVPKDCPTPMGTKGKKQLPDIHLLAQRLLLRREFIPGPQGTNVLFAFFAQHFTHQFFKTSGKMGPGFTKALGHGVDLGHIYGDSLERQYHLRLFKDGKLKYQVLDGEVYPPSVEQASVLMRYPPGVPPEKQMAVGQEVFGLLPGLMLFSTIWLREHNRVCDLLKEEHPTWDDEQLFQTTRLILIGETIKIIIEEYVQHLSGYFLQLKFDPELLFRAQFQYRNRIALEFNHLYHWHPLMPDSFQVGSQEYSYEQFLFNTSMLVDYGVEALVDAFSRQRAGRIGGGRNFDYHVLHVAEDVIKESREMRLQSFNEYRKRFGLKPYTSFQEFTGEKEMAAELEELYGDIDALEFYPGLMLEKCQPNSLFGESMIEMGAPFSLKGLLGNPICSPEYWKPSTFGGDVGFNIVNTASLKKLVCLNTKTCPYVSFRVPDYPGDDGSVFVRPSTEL

Structure (SMILES) | IC50 [1] [µM] | logD [2] | IC50 [3] [µM]
CC(C)c1ccc2c(n1)Oc1ccc(C(C)C(=O)O)cc1C2 (configuration not stated) | > 100 | 0.67 | 
Cc1ccnc2c1Cc1cc(C(C)C(=O)O)ccc1O2 (configuration not stated) | > 100 | -0.17 | 
Cc1cnc2c(c1)Cc1cc(C(C)C(=O)O)ccc1O2 (configuration not stated) | 11 | 0.03 | 
Cc1ccc2c(n1)Oc1ccc(C(C)C(=O)O)cc1C2 (configuration not stated) | 0.32 | -0.11 | 0.03
CC(C(=O)O)c1ccc2c(c1)Cc1cccnc1O2 (configuration not stated) [PRANOPROFEN] | 3.1 | -0.72 | 0.39

More lines, now with the values ahead:

IC50 [1] [µM] | logD [2] | IC50 [3] [µM] | Structure (SMILES)
0.85 | 0.45 | 0.11 | CCc1ccc2c(n1)Oc1ccc(C(C)C(=O)O)cc1C2 (configuration not stated)
> 100 | 1.08 |  | CCCc1ccc2c(n1)Oc1ccc(C(C)C(=O)O)cc1C2 (configuration not stated)
